According to patent publication US12391657B2, “Small molecules that bind and/or modulate differentforms of tau oligomers” (The Board of Regents of the University of Texas System, priority 2019, dated 2025):
Entries after “also recorded” stand apart in the source; their conditions may differ.

Tests used:
[1] = target: T1, recombinant tau oligomers (TauO) (Homo sapiens, UniProt P10636); assay: Atomic force microscopy of recombinant tau oligomers after compound treatment; details: 5 μM of curcumin derivatives
T1 construct: made in house
Experimental: (§1) Tau oligomers were characterized by AFM as previously described (Lasagna-Reeves, (2010)0. Briefly, samples were prepared by adding 10 μl tau oligomers in the absence and presence of AC on freshly-cleaved mica and were allowed to adsorb to the surface. Mica were then washed three times with distilled water to remove unbound protein and impurities followed by air-drying. Samples were then imaged with Multimode 8 AFM machine (Veeco, CA) using a non-contact tapping method (ScanAsyst-Air).
(§2) Compounds were dissolved in ETOH 75%/DMSO (5:1) at a final concentration of 5 mM and diluted in 1× PBS or ddH2O for incubation or toxicity assay (final concentration 5 μM). Tau oligomers in the presence of the small molecules and controls were incubated on an orbital shaker, without stirring, for 16 hours under oligomerization conditions as previously described (Lo Cascio and Kayed 2018).
as §1, with “(Lasagna-Reeves, Castillo-Carranza et al. 2010).” for “(Lasagna-Reeves, (2010)0.”, “absence or” for “absence and”

[2] = test system: primary cortical neurons; assay: MTT viability of primary cortical neurons exposed to TauO pre-incubated with compound; assay type: cell-based, Htau mice; details: 0.5 μM tau oligomers, 5 μM curcumin derivatives, 2 hours
Experimental: as §2
(§3) Human neuroblastoma SH-SY5Y cells were maintained in Dulbecco's modified Eagle's medium (DMEM) and grown to confluence in 96-well plates. […] Cells viability was corrected by the vehicle background. All measurements were performed in triplicate. The cytotoxic effect was determined using 3-(4,5-dimethylthiazol-2-yl)-2,5-diphenyltetrazolium bromide (MTT) assay for assessing cell viability following manufacturer's instructions. Optical density (OD) was measured at 490 nm with POLARstar OMEGA plate reader (BMG Labtechnologies). Cell viability was calculated as the percentage of the OD value of treated cells compared with untreated controls, according to the following equation: Viability=(OD SAMPLE/OD CONTROL)×100. Statistical analysis was based on one-way analysis of variance (ANOVA), performed using GraphPad Prism 6.01.
(§4) Primary cortical neurons from transgenic mice expressing human full-length tau were prepared and maintained as described previously (Beaudoin, Lee et al. 2012). Briefly, cortical neurons were isolated from embryos at embryonic day 16-18 using Accutase solution (Sigma). Dissociated neurons were plated at a density of […] in 96-well plates containing high glucose Dulbecco's Modified Eagle Medium (DMEM, Corning) supplemented with 2% B27 (Gibco), 10,000 units/mL penicillin, 10,000 μg/mL streptomycin , and 25 μg/mL Amphotericin B (Gibco). After 2 hours, plating medium was removed from cells and replaced with Neurobasal medium (Gibco) plus 2% B27, […] (Hyclone), 10,000 units/mL, 10,000 μg/mL streptomycin, and 25 μg/mL Amphotericin B supplement. Cells were grown for 10-12 days in vitro before experiments and 50% of media changes were performed every 3 days. […] The MTT viability assay was performed as previously described (Cell Toxicity Assay—MTT).

[3] = test system: primary cortical neurons; assay: MTT viability of primary cortical neurons exposed to Aβ oligomers pre-incubated with compound; assay type: cell-based, Htau mice; details: 0.5 μM Aβ oligomers, 5 μM curcumin derivatives
Experimental: Aβ oligomers (AβO) were prepared as previously described (Lasagna-Reeves, Castillo-Carranza et al. 2010) by dissolving 0.3 mg of Aβ pellet in 200 μL of hexafluoroisopropanol (HFIP) and incubating for 10-20 min at room temperature. The resulting solution was added to 700 μL of ddH2O in a siliconized Eppendorf tube with holes placed on top of the cap to allow the slow evaporation of HFIP. The samples were then stirred at 500 rpm using a Teflon-coated micro stir bar for 48 hours at room temperature in the fume hood.
as §2, with “Aβ” for “Tau”
as §3, §4

[4] = cited from earlier work
[5] = in vivo; cited from earlier work
[6] = test system: primary cortical neurons; assay: MTT viability of primary cortical neurons exposed to PSP BDTOs with and without compound; assay type: cell-based, Htau mice; details: 0.5 μM BDTOs, CL3 final concentration 5 μM
Experimental: as §3
as §2, with “conditions.” for “conditions as previously described (Lo Cascio and Kayed 2018).”
(§5) Primary cortical neurons from transgenic mice expressing human full-length tau were prepared and maintained as described previously (Beaudoin, Lee et al. 2012). […]

[7] = test system: primary cortical neurons; assay: MTT viability of primary cortical neurons exposed to AD BDTOs with and without compound; assay type: cell-based, Htau mice; details: 0.5 μM BDTOs, CL3 final concentration 5 μM
Experimental: as §3
as §2, with “conditions.” for “conditions as previously described (Lo Cascio and Kayed 2018).”
as §5

[8] = test system: PSP BDTOs; assay: Atomic force microscopy of PSP BDTOs with and without compound; details: with CL3
Experimental: as §1, with “(Lasagna-Reeves, Castillo-Carranza et al. 2010).” for “(Lasagna-Reeves, (2010)0.”, “absence or” for “absence and”
as §2, with “conditions.” for “conditions as previously described (Lo Cascio and Kayed 2018).”
(§6) Immunoprecipitated tau oligomers were characterized using various biochemical methods as previously described (Lasagna-Reeves 2012, Gerson, Castillo-Carranza et al. 2016). AFM was performed to visualize the morphologies of oligomeric assemblies of isolated proteins. Isolated oligomers (5 μL) were injected into an LC-6AD Shimadzu HPLC system fitted with a TSK-GEL G3000 SWXL (30 cm×7.8 mm) column, Supelco-808541 to determine the size of the isolated oligomers. PBS (pH 7.4) was used as the mobile phase with a flow rate of 0.5 mL/min. […]

[9] = test system: AD BDTOs; assay: Atomic force microscopy of AD BDTOs with and without compound; details: with CL3
Experimental: as §1, with “(Lasagna-Reeves, Castillo-Carranza et al. 2010).” for “(Lasagna-Reeves, (2010)0.”, “absence or” for “absence and”
as §2, with “conditions.” for “conditions as previously described (Lo Cascio and Kayed 2018).”
as §6

[10] = test system: primary cortical neurons; assay: BDTOs with and without CL3 taken up by primary cortical neurons, Western blot of cytoplasmic fraction; assay type: cell-based; details: 0.5 μM DLB, AD and PSP BDTOs, 5 μM CL3, 24 hrs
Experimental: FIG. 15. Disease-relevant brain-derived tau oligomers with and without CL3 taken up by primary cortical neurons. Primary cortical neurons were exposed to 0.5 μM DLB, AD and PSP BDTOs in the presence and absence of 5 μM CL3 for 24 hrs. Tau levels are evaluated in the cytoplasmic fraction using the generic tau antibody, Total Tau. […] PSP show to more efficiently decrease monomeric tau in the cytoplasmic fraction as compared to DLB and AD. […] Data were compared by one-way analysis of variance (ANOVA) followed by Dunnett's multiple comparison test: Ctrl vs DLB, DLB+CL3, AD, AD+CL3, PSP, PSP+CL3: **p<0.01; ***p<0.001; ****p<0.0001. Bars and error bars represent the mean and standard deviation.

T1 sequence (P10636 1-441 isoform P10636-8): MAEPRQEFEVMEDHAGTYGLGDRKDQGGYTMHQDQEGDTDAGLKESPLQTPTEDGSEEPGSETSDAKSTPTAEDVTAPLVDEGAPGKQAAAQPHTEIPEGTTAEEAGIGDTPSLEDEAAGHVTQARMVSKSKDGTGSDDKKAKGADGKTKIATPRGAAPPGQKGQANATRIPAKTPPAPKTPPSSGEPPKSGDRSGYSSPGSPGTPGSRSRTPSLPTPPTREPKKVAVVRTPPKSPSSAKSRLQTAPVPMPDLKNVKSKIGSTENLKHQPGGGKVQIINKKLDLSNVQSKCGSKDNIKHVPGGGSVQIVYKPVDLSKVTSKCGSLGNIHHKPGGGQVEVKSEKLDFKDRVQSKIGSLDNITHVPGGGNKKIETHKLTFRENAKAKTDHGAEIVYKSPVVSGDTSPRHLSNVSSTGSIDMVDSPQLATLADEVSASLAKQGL

| SMILES | morphology and aggregation state of TauO by AFM [1] | viability of neuronal culture exposed to TauO pre-incubated with compound [2] | viability of neuronal culture exposed to AβO pre-incubated with compound [3] | solubility in aqueous media [4] | bioavailability [5] | PSP BDTOs-induced toxicity in primary neurons (cell viability) [6] | AD BDTOs-induced toxicity in primary neurons (cell viability) [7] | morphology and aggregation state of PSP BDTOs by AFM [8] | morphology and aggregation state of AD BDTOs by AFM [9] | effect of BDTO pretreatment on tau levels in cytoplasmic fraction of primary neurons [10] |
| --- | --- | --- | --- | --- | --- | --- | --- | --- | --- | --- |
| CC(=O)/C=C/c1ccc(C)cc1 [HemiC9] | converting TauO into much larger aggregates | significantly higher cells viability as compared to TauO alone | no changes in cells viability as compared to AβO alone | – | – | – | – | – | – | – |
| COc1cc(/C=C/C(=O)OCC(=O)/C=C/c2ccc(OC)c(OC)c2)ccc1F [Cal9] | converting TauO into much larger aggregates | significantly higher cells viability as compared to TauO alone | no changes in cells viability as compared to AβO alone | – | – | – | – | – | – | – |
| COc1cc(/C=C/C(=O)COC(=O)/C=C/c2ccc(O)c(OC)c2)ccc1O [Calebin-A] | – | – | – | poor solubity in water | low bioavailabity | – | – | – | – | – |
| O=C(/C=C/c1ccc(Cl)cc1)COC(=O)/C=C/c1ccc(Cl)cc1 [Cal7] | converting TauO into much larger aggregates | significantly higher cells viability as compared to TauO alone | no changes in cells viability as compared to AβO alone | – | – | – | – | – | – | – |
| O=C(/C=C/c1ccc(F)cc1)C(=O)/C=C/c1ccc(F)cc1 [CL3] | converting TauO into much larger aggregates | significantly higher cells viability as compared to TauO alone | no changes in cells viability as compared to AβO alone | – | – | reduced PSP-derived tau oligomers toxicity; also recorded: able to rescue primary neurons from PSP BDTOs-induced toxicity; also recorded: modulates PSP BDTOs associated neurotoxicity | not be able to modulate and neutralize AD BDTOs-induced toxicity; also recorded: no effect in preventing AD BDTOs-induced toxicity | formation of larger tau aggregates | no morphological changes were observed | differently modulate their aggregation states |
